Measured values published in BindingDB's records for doi:10.3109/14756366.2010.504674 (University of Bonn, 2011).

Key:
Assay in all cases: Cholinesterase Inhibition Assay
Conditions in all cases: pH 7.3; 25 °C
Acetylcholinesterase [1] = molecular target: Acetylcholinesterase (Homo sapiens, UniProt P22303)
Protocol: (§1) Cholinesterase inhibition was assayed spectrophotometrically at 412 nm at 25°C [Pietsch et al., J. Med. Chem., 48:8270-8288; Ellman et al., Biochem. Pharmacol., 7:88-95]. Product formation was monitored over 5 min. Assay buffer was 100 mM sodium phosphate, 100 mM NaCl, pH 7.3. Enzyme stock solutions were prepared with assay buffer in the following concentrations ∼ 100 U/mL (EeAChE),∼ 3 U/mL (hAChE), ∼ 10 U/mL (hBChE), and were kept at 0°C. Appropriate dilutions of the EeAChE (1:30) and hBChE (1:10) solutions were done immediatelybefore starting the measurements. Solutions of ATCh (5, 10, 15, or 20 mM), BTCh (10 mM), and DTNB (7 mM) were prepared in assay buffer and kept at 0°C. Stock solutions of the inhibitors were prepared in acetonitrile. EeAChE was assayed as follows. Into a cuvette containing 830 μL assay buffer, 50 μL of the DTNB solution, 50 μL acetonitrile, 10 μL of an inhibitor solution, and 10 μL of an enzyme solution were added and thoroughly mixed. After incubation for 15 minat 25°C, the reaction was initiated by adding 50 μL of the ATCh solution. The following final concentration were used, ∼ 0.033 U/mL of EeAChE, 250, 500, 750, or 1000 μM of ATCh, 350 μM of DTNB, 6% acetonitrile. Similarly, hAChE (final concentration ∼ 0.03 U/mL) was assayed with 500 μM ATCh, and hBChE (finalconcentration ∼ 0.01 U/mL) with 500 μM BTCh. The rates of enzyme-catalyzed substrate hydrolysis were corrected by those of the non-enzymatic hydrolysis ofATCh or BTCh, respectively, as determined by using 10 μL of assay buffer, instead of the enzyme solution. A Km value of 550 μM19 for the substrate ATCh used in the EeAChE assay was taken for kinetic analyses.

Cholinesterase = Cholinesterase (Homo sapiens, UniProt P06276)
Sequence of Cholinesterase (P06276 whole entry): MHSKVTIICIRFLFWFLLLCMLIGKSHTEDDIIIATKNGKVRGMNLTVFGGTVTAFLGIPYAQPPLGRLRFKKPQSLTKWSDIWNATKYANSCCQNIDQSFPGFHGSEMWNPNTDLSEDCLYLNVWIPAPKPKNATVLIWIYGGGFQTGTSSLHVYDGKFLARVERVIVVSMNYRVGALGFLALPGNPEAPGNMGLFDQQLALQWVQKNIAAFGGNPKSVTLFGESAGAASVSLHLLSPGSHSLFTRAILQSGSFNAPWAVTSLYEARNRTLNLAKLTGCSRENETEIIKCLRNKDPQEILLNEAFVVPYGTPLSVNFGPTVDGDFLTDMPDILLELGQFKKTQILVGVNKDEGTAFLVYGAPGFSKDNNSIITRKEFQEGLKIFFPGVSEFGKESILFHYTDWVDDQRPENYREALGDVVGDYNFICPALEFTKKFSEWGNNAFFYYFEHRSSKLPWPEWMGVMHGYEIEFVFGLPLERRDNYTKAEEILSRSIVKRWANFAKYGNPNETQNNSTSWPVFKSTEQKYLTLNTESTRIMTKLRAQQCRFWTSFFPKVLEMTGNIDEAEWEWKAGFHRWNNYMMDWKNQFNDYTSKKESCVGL
Protocol: as §1

Acetylcholinesterase [2] = molecular target: Acetylcholinesterase (Electrophorus electricus, UniProt O42275)
Sequence of Acetylcholinesterase (Electrophorus electricus, UniProt O42275) (O42275 whole entry): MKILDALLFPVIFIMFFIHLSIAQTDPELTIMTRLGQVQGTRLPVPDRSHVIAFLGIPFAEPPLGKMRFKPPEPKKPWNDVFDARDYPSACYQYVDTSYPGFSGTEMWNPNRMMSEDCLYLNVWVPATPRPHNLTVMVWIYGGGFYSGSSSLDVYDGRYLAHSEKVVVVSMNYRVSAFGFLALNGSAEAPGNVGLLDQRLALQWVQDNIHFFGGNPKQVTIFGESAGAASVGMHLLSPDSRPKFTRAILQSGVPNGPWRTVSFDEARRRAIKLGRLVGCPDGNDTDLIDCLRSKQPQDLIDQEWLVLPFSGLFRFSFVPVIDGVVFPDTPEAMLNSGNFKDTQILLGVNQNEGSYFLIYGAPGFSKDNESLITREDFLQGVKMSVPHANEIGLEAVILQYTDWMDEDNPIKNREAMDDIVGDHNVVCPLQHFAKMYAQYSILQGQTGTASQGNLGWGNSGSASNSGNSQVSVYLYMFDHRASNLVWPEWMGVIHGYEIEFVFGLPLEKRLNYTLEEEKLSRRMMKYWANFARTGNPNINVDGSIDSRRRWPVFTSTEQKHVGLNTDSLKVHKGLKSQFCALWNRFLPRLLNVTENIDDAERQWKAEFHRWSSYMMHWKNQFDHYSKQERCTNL
Protocol: as §1

Sequence of Acetylcholinesterase (Homo sapiens, UniProt P22303) (P22303 whole entry): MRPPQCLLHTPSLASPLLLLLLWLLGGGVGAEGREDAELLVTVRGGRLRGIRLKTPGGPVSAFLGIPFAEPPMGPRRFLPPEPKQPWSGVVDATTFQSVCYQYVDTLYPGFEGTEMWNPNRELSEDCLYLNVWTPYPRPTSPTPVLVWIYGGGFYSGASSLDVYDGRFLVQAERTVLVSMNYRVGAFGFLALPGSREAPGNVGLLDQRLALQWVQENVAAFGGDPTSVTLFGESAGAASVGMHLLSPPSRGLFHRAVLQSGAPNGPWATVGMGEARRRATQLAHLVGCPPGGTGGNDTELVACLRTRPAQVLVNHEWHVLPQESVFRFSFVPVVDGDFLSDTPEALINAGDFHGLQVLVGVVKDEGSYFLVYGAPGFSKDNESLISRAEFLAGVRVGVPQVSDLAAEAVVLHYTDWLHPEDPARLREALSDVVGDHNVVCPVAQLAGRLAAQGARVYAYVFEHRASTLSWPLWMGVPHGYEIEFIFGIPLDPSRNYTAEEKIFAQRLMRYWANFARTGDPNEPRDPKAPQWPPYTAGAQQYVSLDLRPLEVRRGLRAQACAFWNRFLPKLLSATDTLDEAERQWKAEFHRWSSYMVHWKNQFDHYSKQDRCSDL

SMILES | IC50 (Acetylcholinesterase [1]) [µM] | IC50 (Cholinesterase) [µM] | IC50 (Acetylcholinesterase [2]) [µM] | Ki (Acetylcholinesterase [2]) [µM]
O=C1c2c(sc3c2CCCC3)NC2=NCCCN12 [2,3,4,7,8,9,10,12-Octahydro-6H-benzothieno[2,3-d]pyrimido[1,2-a]pyrimidin-6-one (8)] | > 200 | > 200 | > 75 | 
O=C1c2c(sc3c2CCCC3)NC2=NCCN12 [2,3,6,7,8,9-Hexahydro-benzothieno[2,3-d]-imidazo[1,2-a]pyrimidin-5(11H)-one (7)] | > 200 | > 200 | > 75 | 
C1=Nc2sc3c(c2C2=NCCN12)CCCC3 [2,3,8,9,10,11-Hexahydro-benzothieno[3,2-e]imidazo[1,2-c]pyrimidine (11)] | 56 | 88 | 1.75 | 1.32
C1=Nc2sc3c(c2C2=NCCCN12)CCCC3 [3,4,9,10,11,12-Hexahydro-2H-benzothieno[3,2-e]pyrimido[1,2-c]pyrimidine (12)] | 20.5 | 131 | 2.26 | 1.92
O=C1c2c(sc3c2CCN(Cc2ccccc2)C3)NC2=NCCN12 [8-Benzyl-2,3,6,7,8,9-hexahydro-imidazo[1,2-a]pyrido[4′,3′:4,5]thieno[2,3-d]pyrimidin-5(11H)-one (9)] | 14.2 | > 200 | 1.35 | 1.55
O=C1c2c(sc3c2CCN(Cc2ccccc2)C3)NC2=NCCCN12 [9-Benzyl-2,3,4,7,8,9,10,12-octahydro-6H-pyrido[4′,3′:4,5]thieno[2,3-d]pyrimido[1,2-a]pyrimidin-6-one (10)] | 5.69 | 51.5 | 1.51 | 2.07
C1=Nc2sc3c(c2C2=NCCN12)CCN(Cc1ccccc1)C3 [9-Benzyl-2,3,8,9,10,11-hexahydro-imidazo[1,2-c]pyrido[4′,3′:4,5]thieno[3,2-e]pyrimidine (13)] | 21.8 | 89.9 | 3.09 | 2.36
C1=Nc2sc3c(c2C2=NCCCN12)CCN(Cc1ccccc1)C3 [10-Benzyl-3,4,9,10,11,12-hexahydro-2H-pyrido[4′,3′:4,5]thieno[3,2-e]pyrimido[1,2-c]pyrimidin (14)] | 62.5 | 119 | 1.73 | 1.5
